The source of these data is paper PMC12060349 (BMC Pharmacology & Toxicology, 2025).

For data set [1], the system named is healthy Chinese male subjects. Nature of the data set: Safety evaluation. The data set is classed as in vivo, human (healthy Chinese male subjects).
Data set [2] relates to patients with advanced NSCLC with EGFR mutations. Particulars: FLAURA clinical study; cited from earlier work.
Data set [3] deals with healthy Chinese male subjects. Nature of the data set: Safety evaluation. The data set is classed as in vivo, human (healthy Chinese male subjects). The note with it: Group 2.

Regarding `CCC(C)n1ncn(-c2ccc(N3CCN(c4ccc(OCC5COC(Cn6cncn6)(c6ccc(Cl)cc6Cl)O5)cc4)CC3)cc2)c1=O` (stereo not shown) [Itraconazole], the “subjects with TEAEs” value in data set [1] (Group 1, monotherapy phase with Itraconazole 200 mg QD) is given as 42.9%. For the same compound, in data set [1] (Group 1, 13 TEAEs in 10 subjects), the “subjects with TEAEs also related to Itraconazole” value was found to be 66.7%.
With `C=CC(=O)Nc1cc(Nc2nccc(-c3cn(C)c4ccccc34)n2)c(OC)cc1N(C)CCN(C)C` [Osimertinib], in data set [2], the median overall survival was 38.6 months.
`CO[C@H]1/C=C/O[C@@]2(C)Oc3c(C)c(O)c4c(O)c(c(/C=N/N5CCN(C)CC5)c(O)c4c3C2=O)NC(=O)/C(C)=C\C=C\[C@H](C)[C@H](O)[C@@H](C)[C@@H](O)[C@@H](C)[C@H](OC(C)=O)[C@@H]1C` [Rifampicin]: in data set [3], the “subjects with TEAEs also related to Rifampicin” value amounted to 20.0%.
